Measurements: US8426425B2, “Aminopyrimidines useful as inhibitors of protein kinases” (Vertex Pharmaceuticals Incorporated, priority 2006, dated 2013)

Target: T1, GSK-3β (AA 1-420) (Homo sapiens, UniProt P49841)
T1 construct: GSK-3β (AA 1-420)
Test: GSK-3 Inhibition Assay (standard coupled enzyme system)
Assay type: biochemical
Settings: 20 nM GSK-3β, 20 μM ATP, 300 μM peptide, 30° C.
Description: Compounds of the present invention were screened for their ability to inhibit GSK-3β (AA 1-420) activity using a standard coupled enzyme system (Fox et al., Protein Sci. 1998, 7, 2249). Reactions were carried out in a solution containing 100 mM HEPES (pH 7.5), 10 mM MgCl2, 25 mM NaCl, 300 μM NADH, 1 mM DTT and 1.5% DMSO. Final substrate concentrations in the assay were 20 μM ATP (Sigma Chemicals, St Louis, Mo.) and 300 μM peptide (American Peptide, Sunnyvale, Calif.). Reactions were carried out at 30° C. and 20 nM GSK-3β. Final concentrations of the components of the coupled enzyme system were 2.5 mM phosphoenolpyruvate, 300 μM NADH, 30 μg/ml pyruvate kinase and 10 μg/ml lactate dehydrogenase.
An assay stock buffer solution was prepared containing all of the reagents listed above with the exception of ATP and the test compound of the present invention. The assay stock buffer solution (175 μl) was incubated in a 96 well plate with 5 μl of the test compound of the present invention at final concentrations spanning 0.002 μM to 30 μM at 30° C. for 10 min. Typically, a 12-point titration was conducted by preparing serial dilutions (from 10 mM compound stocks) with DMSO of the test compounds of the present invention in daughter plates. The reaction was initiated by the addition of 20 μl of ATP (final concentration 20 μM). Rates of reaction were obtained using a Molecular Devices Spectramax plate reader (Sunnyvale, Calif.) over 10 min at 30° C. The Ki values were determined from the rate data as a function of inhibitor concentration.

T1 sequence (P49841 whole entry, species assumed, the tested form may be a part): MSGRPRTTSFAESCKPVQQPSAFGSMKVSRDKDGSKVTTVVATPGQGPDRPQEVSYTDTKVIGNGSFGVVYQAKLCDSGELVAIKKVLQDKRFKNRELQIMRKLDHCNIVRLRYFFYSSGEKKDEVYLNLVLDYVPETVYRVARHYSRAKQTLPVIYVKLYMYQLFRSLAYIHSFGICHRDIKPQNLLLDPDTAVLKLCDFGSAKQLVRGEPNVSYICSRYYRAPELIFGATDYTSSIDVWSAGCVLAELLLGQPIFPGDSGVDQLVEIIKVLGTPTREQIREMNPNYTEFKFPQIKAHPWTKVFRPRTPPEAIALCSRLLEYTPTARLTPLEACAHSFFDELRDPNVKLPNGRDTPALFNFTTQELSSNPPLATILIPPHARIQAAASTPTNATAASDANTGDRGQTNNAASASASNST

Ki [nM] | Structure (SMILES)
< 50 | Cc1cc(Nc2cc(N3CCC3)nc(C3CCCCC3)n2)n[nH]1 [Compound I-2]
50 to 100 | Fc1ccc2[nH]nc(Nc3cc(N4CCC4)nc(C4CCCCC4)n3)c2c1 [Compound I-3]
< 50 | Fc1cnc2[nH]nc(Nc3cc(N4CCC4)nc(C4CCCCC4)n3)c2c1 [Compound I-1, N-(6-(azetidin-1-yl)-2-cyclohexylpyrimidin-4-yl)-5-fluoro-1H-pyrazolo[3,4-b]pyridin-3-amine]
